Test results from US20050107289A1, “Anti-microbial peptides and compositions” (priority 2001, published 2005).
Where a name gives a salt, the structure may show the parent alone. Non-standard residues stand in square brackets, D forms with d. Residues, ends and D or L forms follow the SMILES beside them.

How the values were obtained:
[1] = Single channel conductance in planar lipid membranes
Protocol: The ion transport properties of tetrapeptides cyclo[(β-Trp)4] and cyclo[(β-Trp-β-Leu)2], synthesized via established protocols, were studied in liposome-based assays and by single channel conductance measurements in planar lipid membranes. The observed conductance in 500 mM KCl with peptide concentrations of about […] in the subphase is 56 pS, corresponding to the rates of channel mediated K^+ transport of 1.9×10^7 ions s^−1 for both tetrapeptides.

E. faecalis ATCC 51299 = assay: microbe, parasite or virus in culture; assay type: cell-based, Enterococcus faecalis; conditions: ATCC 51299
Protocol: (§1) The antimicrobial activity of the peptides was determined using a broth dilution assay essentially as descried in the guidelines of the National Committee for […] (NCCLS) [National Committee for Clinical Laboratory Standards. Methods for dilution antimicrobial susceptibility tests for bacteria that grow aerobically. Fourth edition. Approved Standard (1997). Document M7-A4. […] The microdilution method has the advantages of requiring less amount of peptide for each assay and the possibility of multiple simultaneous inoculations and was used in most studies. Several of the strains of bacteria tested are further described in Table 3.
(§2) Preparation of peptide solutions. Stock peptide solutions were prepared in 5% DMSO in aq. sucrose (9%). Determination of peptide concentrations was done by quantitative HPLC analysis using known concentrations of internal standards and/or by measuring UV absorption of tryptophane-containing peptide solutions in H2O (λ=280 εTrp: 5690). Serial 2-fold dilutions were made in the above DMSO/aq. sucrose (9%) mixture with concentrations ranging approximately 400-2 μg/ml and aliquots were dispensed in test tubes (100 μl) for the macrodilution test or in microtiter plates (20 μl) for the microdilution assays.
(§3) Inoculum preparation. Overnight cultures of different microorganisms grown in suitable media were diluted 4000 times to an approximate inoculum size of 2.5×10^5 cfu/ml.
(§4) Macrodilution method. Macrodilution methods were performed using procedures similar to those described in the National Committee for Clinical Laboratory Standards. Methods for dilution antimicrobial susceptibility tests for bacteria that grow aerobically. Fourth edition. Approved Standard (1997). Document M7-A4. (NCCLS,Villanova, Pa., 1997). Two ml aliquots of the above inoculum were dispensed to test tubes containing different peptide solutions.
(§5) Microdilution method. Microdilution methods were performed using procedures similar to those described in the National Committee for Clinical Laboratory Standards. Methods for dilution antimicrobial susceptibility tests for bacteria that grow aerobically. Fourth edition. Approved Standard (1997). Document M7-A4.

H. influenzae ATCC 49247 = assay: microbe, parasite or virus in culture; assay type: cell-based, Hemophilus influenzae; conditions: ATCC 49247
Protocol: as §1, §2, §3, §4, §5

S. aureus ATCC 33592 = assay: microbe, parasite or virus in culture; assay type: cell-based, Staphylococcus aureus; conditions: ATCC 33592
Protocol: as §1, §2, §3, §4, §5

E. coli (K12) = assay: microbe, parasite or virus in culture; assay type: cell-based, Escherichia coli; conditions: K12
Protocol: as §1, §2, §3, §4, §5

[2] = tested on: E. coli (EL744) K12 (tolC::kan); assay: microbe, parasite or virus in culture; assay type: cell-based, Escherichia coli; conditions: MHII broth
Protocol: as §1, §2, §3, §4, §5

E. faecium SP180 = assay: microbe, parasite or virus in culture; assay type: cell-based, Enterococcus faecium; conditions: SP180
Protocol: as §1, §2, §3, §4, §5

[3] = tested on: vancomycin-resistant Enterococus faecalis (VRE)(ATCC 51575); assay type: cell-based, Enterococcus faecalis; parameters: key to VRE (in vitro activity): peptide concentration in μg/ml (broth dilution assay); conditions: Table 9; media c: Brain Heart Infusion (BHI)
In short: (§6)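 Broth microdilution (macrodilution in some cases) per NCCLS M7-A4; peptides 2-fold serially diluted in 5% DMSO/9% sucrose, ~400-2 μg/ml before dilution into broth; inoculum ~2.5×10^5 cfu/ml from overnight culture diluted 4000×.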

[4] = tested on: S. aureus (MRSA) ATCC 33591; assay type: cell-based, Staphylococcus aureus; conditions: Table 9; media b: cation adjusted Meuller Hinton broth (MHBII)
In short: as §6

murine red blood cells = assay: Red blood cell hemolysis; assay type: cell-based, mouse
In short: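 Washed murine erythrocytes at 5% in saline with 10% FBS were exposed to serial peptide dilutions for 30 min at 37° C. Supernatant absorbance at 560 nm was read, with saline as 0% and 1% Triton X-100 as 100% hemolysis.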

Compound	rate of channel mediated K+ transport ([1]; 500 mM KCl)	observed conductance ([1]; 500 mM KCl, peptide about 30 mM in the subphase) [pS]	transport speed relative to gramicidin A ([1]; similar conditions)	E. faecalis ATCC 51299 MIC (E. faecalis ATCC 51299) [µg/mL]	H. influenzae ATCC 49247 MIC (H. influenzae ATCC 49247) [µg/mL]	S. aureus ATCC 33592 MIC (S. aureus ATCC 33592) [µg/mL]	E. coli (K12) MIC (E. coli (K12)) [µg/mL]	E. coli (EL744) K12 (tolC::kan) MIC [2] [µg/mL]	E. faecium SP180 MIC (E. faecium SP180) [µg/mL]	VRE (in vitro activity) [3]	MRSA (in vitro activity) [4]	RBC Hemolysis (HD50) (murine red blood cells)
cyclo[(β-Trp)4]	1.9×10^7 ions s^−1	56	more than twice									
CC(C)C[C@H]1NC(=O)[C@H](CCCCN)NC(=O)[C@@H](CCCCN)NC(=O)[C@H](Cc2c[nH]c3ccccc23)NC(=O)[C@@H](CC(C)C)NC(=O)[C@H](Cc2c[nH]c3ccccc23)NC1=O [[KKLWLW]-HCl, cyclo-(D-Lys-Lys-D-Leu-Trp-D-Leu-Trp)] (cyclo(K[dL]W[dL]W[dK]))				>128	>128	32	>128	32	16			
CC(C)C[C@H]1NC(=O)[C@H](Cc2c[nH]c3ccccc23)NC(=O)[C@@H](CCCCN)NC(=O)[C@H](CCCNC(=N)N)NC(=O)[C@@H](CCCNC(=N)N)NC(=O)[C@H](Cc2c[nH]c3ccccc23)NC(=O)[C@@H](CC(C)C)NC(=O)[C@H](Cc2c[nH]c3ccccc23)NC1=O [[RRKWLWLW]-HCl, cyclo-(D-Arg-Arg-D-Lys-Trp-D-Leu-Trp-D-Leu-Trp)] (cyclo([dR]R[dK]W[dL]W[dL]W))				8 to 16	32 to 64	8	32		4	9	9	70
CC(C)C[C@H]1NC(=O)[C@H](Cc2c[nH]c3ccccc23)NC(=O)[C@@H](CCCCN)NC(=O)[C@H](CO)NC(=O)[C@@H](CCCCN)NC(=O)[C@H](Cc2c[nH]c3ccccc23)NC(=O)[C@@H](CC(C)C)NC(=O)[C@H](Cc2c[nH]c3ccccc23)NC1=O [[KSKWLWLW]-HCl, D-Lys-Ser-D-Lys-Trp-D-Leu-Trp-D-Leu-Trp] (cyclo([dK]S[dK]W[dL]W[dL]W))				8	32	4			4	9	9	60
